Tested on: R. solanacearum
Format: cell-based, Ralstonia solanacearum
Conditions: ΔrmyA mutant strain (more sensitive than WT); 0.4 mM; 24 hours

| Structure (SMILES) | R. solanacearum growth (OD) |
| --- | --- |
| COC1=C(O)C(=O)C2=C(C1=O)[C@H]1N[C@@H](Cc3c[nH]c4ccccc34)C(=O)N1C(C(=O)N[C@@H](CC(C)CO)C(=O)O)C2 (some centres unmarked) [Imizoquin A, imizoquin A] | decreases R. solanacearum growth modestly |
| COC1=C(O)C(=O)C2=C(C1=O)[C@H]1N[C@@H](Cc3c[nH]c4ccccc34)C(=O)N1C(C(=O)N[C@@H](CC(CO)CO)C(=O)O)C2 (some centres unmarked) [Imizoquin B, imizoquin B] | decreases R. solanacearum growth modestly |

— patent publication US11649430B2 (priority 2018, dated 2023)
